US20260098008A1, “COVALENT, CHEMOGENETIC ACTIVATORS FOR K2P POTASSIUM CHANNELS AND USES THEREOF” (THE REGENTS OF THE UNIVERSITY OF CALIFORNIA, priority 2022, published 2026)
Changes are numbered by the printed parent chain.

How the values were obtained:
A286F TREK-1^CG* = target: T1, A286F TREK-1^CG* (Mus musculus, UniProt P97438, A301F/S146C); assay: Resting membrane potential, current-clamp (I=0) in HEK293 cells; assay type: cell-based; settings: 20 μM CAT335
T1 construct: expressed in transfected cells; host or cells: Xenopus laevis oocytes injected with mRNA
T1 sequence (P97438 1-411 isoform P97438-2 S131C/A286F): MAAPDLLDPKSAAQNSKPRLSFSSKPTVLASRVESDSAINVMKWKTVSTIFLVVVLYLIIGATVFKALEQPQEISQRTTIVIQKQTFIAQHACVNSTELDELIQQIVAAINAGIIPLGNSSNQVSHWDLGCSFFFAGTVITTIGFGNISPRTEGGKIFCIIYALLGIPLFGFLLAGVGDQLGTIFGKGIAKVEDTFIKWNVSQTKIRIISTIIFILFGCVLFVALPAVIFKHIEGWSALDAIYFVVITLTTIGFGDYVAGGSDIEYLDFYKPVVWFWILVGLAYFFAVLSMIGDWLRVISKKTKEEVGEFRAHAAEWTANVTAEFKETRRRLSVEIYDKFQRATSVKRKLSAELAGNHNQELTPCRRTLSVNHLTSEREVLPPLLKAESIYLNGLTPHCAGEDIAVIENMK
Excerpt: (§1) Mouse K2P2.1 (TREK-1) (Genbank accession number: NP_034737.2), mouse K2P10.1 (TREK-2) (NM_001316665.1), mouse K2P4.1 (TRAAK) (NM_008431.3), human K2P4.1 (TRAAK) (NM_033310.2) and mouse K2P18.1(TRESK) (NM_207261.3) were used for this study. Point mutations were introduced by site-directed mutagenesis using custom primers and confirmed by sequencing before use. For studies using Xenopus oocytes, K2P channels were subcloned into a previously reported pGEMHE/pMO vector (46). For expression in HEK293 cells, mouse K2P2.1 (TREK-1) and mutants were expressed from a previously described pIRES2-EGFP vector in HEK293 cells (46,47). K2P2.1 (TREK-1) tandems were constructed by connecting the open reading frames for the individual subunits with a linker encoding the […] (SEQ ID NO: 19) sequence. Tandems used for HEK293 cells included an N-terminal HA tag ([…] (SEQ ID NO: 20)) on the first subunit.
(§2) 50% confluent cells were co-transfected (in 35-mm diameter wells) with 10-100 ng of the K2P2.1 plasmid and 400 ng of an eGFP plasmid (for visualization) using LipofectAMINE 2000 (Invitrogen) for 24 h, after which the cells were either plated onto coverslips or the media exchanged with fresh media. […]
(§3) Whole-cell patch-clamp experiments with K2P2.1(TREK-1) and mutants were carried out 24-48 h after transfection. […] Data were analyzed using Clampfit 11 and GraphPad Prism 9.

TREK-1^CG* = target: T2, TREK-1^CG* (Mus musculus, UniProt P97438, S146C); assay: as above; assay type: cell-based; settings: 20 μM CAT335
T2 construct: expressed in transfected cells; host or cells: HEK293 (pIRES2-EGFP vector)
T2 sequence (P97438 1-411 isoform P97438-2 S131C): T1 sequence (P97438 1-411 isoform P97438-2 S131C/A286F) with F286A
Excerpt: as §1, §2, §3

[1] = Solubility in aqueous solutions (crystallization sample preparation); assay type: physicochemical
Experimental: K2P2.1cryst ML335 and ML402 complex crystals grew in the same conditions as K2P2.1cyst, but the protein was incubated for at least 1 h with 2.5 mM of activator before setting the crystal plates. […] Then each compound was diluted 1:100 in SEC buffer to 5 mM concentration, giving a milky solution. This solution was mixed 1:1 to K2P2.1cryst previously concentrated to 12 mg ml^−1. […] The samples were briefly centrifuged in a table-top centrifuge (10,000 g) to remove any insoluble material before setting the crystal plates.

SMILES | Change of resting membrane potential (ΔRMP) (A286F TREK-1^CG*) | Change of resting membrane potential (ΔRMP) (TREK-1^CG*) | Solubility in aqueous solutions [1]
O=C(NCc1ccc(Cl)cc1Cl)c1ccc(N2C(=O)C=CC2=O)cc1 [CAT335] | −27 mV | −6 mV | –
CS(=O)(=O)Nc1ccc(C(=O)NCc2ccc(Cl)cc2Cl)cc1 [ML335, reference compound] | – | – | insoluble in aqueous solutions
